Read-outs that look alike come from different tables or passages of the source.
Key:
[1] = molecular target: T1, human dopamine transporter (hDAT) (Homo sapiens, UniProt Q01959); assay: [125I]RTI-55 binding to human dopamine transporter in HEK-293 hDAT membranes; conditions: for Hill Coefficient: [125I]RTI-55 binding
T1 construct: expressed in transfected cells; host or cells: HEK-293 cells stably expressing recombinant hDAT
Experimental: To characterize drug interactions with the human dopamine transporter (hDAT), drugs (approximately 30 nM to 10 μM) were incubated with a membrane preparation from HEK-293 cells stably expressing the recombinant hDAT, [^125I]RTI-55 (34 pM), and buffer in a final volume of 250 μl. Independent assays were conducted 2 to 3 times with duplicate determinations. The Cheng-Prusoff equation was used to convert IC50 values to Ki values.

[2] = molecular target: T2, hDAT (Homo sapiens, UniProt Q01959); assay: [3H]DA uptake in HEK hDAT cells; type: cell-based; conditions: Table II
T2 construct: expressed in transfected cells; host or cells: HEK-293 cells stably expressing recombinant hDAT

[3] = molecular target: T3, hSERT (Homo sapiens, UniProt P31645); assay: [125I]RTI-55 binding in HEK hSERT membranes; conditions: Table II; bound given in μM
T3 construct: expressed in transfected cells; host or cells: HEK cells expressing hSERT

[4] = molecular target: T3, hSERT; assay: [3H]5HT uptake in HEK-hSERT cells; type: cell-based; conditions: Table II; bound given in μM
[5] = molecular target: T4, hNET (Homo sapiens, UniProt P23975); assay: [125I]RTI-55 binding in HEK-hNET membranes; conditions: Table II
T4 construct: expressed in transfected cells; host or cells: HEK cells expressing hNET

[6] = molecular target: T4, hNET; assay: [3H]NE uptake in HEK-hNET cells; type: cell-based; conditions: Table II
[7] = Table 1, [125I]RTI-55 34 pM, HEK-293 hDAT membranes, mean +/- range or s.e.m. of 2 or 3 experiments, read-out: Ki value
[8] = Table 1, HEK-293 hDAT membranes
[9] = Table II, read-out: [125I]RTI-55 Binding in HEK hDAT Membranes Ki (nM) sem
[10] = read-out: [3H]DA Uptake in HEK hDAT cells IC50 (nM) sem
[11] = bound given in μM, read-out: [125I]RTI-55 Binding in HEK-hNET Membranes KI
[12] = read-out: [3H]NE Uptake in HEK-hNET cells IC50 (nM) sem
[13] = Table II, bound given in μM, read-out: [125I]RTI-55 Binding in HEK hDAT Membranes Ki
[14] = bound given in μM, read-out: [3H]DA Uptake in HEK hDAT cells IC50
[15] = bound given in μM, read-out: [3H]NE Uptake in HEK-hNET cells IC50
[16] = read-out: [125I]RTI-55 Binding in HEK-hNET Membranes KI (nM) sem

T4 sequence (P23975 whole entry): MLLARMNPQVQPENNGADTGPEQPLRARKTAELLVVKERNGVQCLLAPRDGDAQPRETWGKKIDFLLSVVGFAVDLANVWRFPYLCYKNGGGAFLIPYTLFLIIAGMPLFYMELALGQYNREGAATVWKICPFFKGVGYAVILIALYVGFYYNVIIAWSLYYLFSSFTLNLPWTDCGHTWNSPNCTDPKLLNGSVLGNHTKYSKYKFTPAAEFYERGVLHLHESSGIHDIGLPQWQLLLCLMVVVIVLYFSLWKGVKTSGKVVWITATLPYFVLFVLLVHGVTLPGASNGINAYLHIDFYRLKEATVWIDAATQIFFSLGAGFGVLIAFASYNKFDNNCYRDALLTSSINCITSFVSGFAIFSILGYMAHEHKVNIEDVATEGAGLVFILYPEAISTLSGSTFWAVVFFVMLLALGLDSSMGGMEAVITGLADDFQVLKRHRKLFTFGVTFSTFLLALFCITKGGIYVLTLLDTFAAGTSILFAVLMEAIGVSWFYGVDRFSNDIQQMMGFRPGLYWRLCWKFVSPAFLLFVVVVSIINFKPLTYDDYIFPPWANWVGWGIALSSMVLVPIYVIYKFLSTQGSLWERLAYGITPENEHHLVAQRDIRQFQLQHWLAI
T3 sequence (P31645 whole entry): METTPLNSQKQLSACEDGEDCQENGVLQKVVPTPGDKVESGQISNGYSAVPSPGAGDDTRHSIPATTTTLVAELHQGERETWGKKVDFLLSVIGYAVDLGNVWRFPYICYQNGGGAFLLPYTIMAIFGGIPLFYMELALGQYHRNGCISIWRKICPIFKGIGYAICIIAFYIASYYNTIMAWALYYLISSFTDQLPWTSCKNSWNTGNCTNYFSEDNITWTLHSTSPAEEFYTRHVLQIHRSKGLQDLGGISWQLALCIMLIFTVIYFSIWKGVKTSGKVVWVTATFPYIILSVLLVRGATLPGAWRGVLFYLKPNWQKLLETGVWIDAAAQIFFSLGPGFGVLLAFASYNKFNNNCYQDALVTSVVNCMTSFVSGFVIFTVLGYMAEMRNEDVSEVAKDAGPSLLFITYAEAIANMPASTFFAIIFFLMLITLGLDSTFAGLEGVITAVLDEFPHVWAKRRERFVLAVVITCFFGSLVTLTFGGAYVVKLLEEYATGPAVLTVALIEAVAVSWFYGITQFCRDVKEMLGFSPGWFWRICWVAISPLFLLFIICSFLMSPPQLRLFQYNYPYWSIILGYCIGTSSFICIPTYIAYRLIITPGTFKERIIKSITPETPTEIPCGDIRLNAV
T1 sequence (Q01959 whole entry): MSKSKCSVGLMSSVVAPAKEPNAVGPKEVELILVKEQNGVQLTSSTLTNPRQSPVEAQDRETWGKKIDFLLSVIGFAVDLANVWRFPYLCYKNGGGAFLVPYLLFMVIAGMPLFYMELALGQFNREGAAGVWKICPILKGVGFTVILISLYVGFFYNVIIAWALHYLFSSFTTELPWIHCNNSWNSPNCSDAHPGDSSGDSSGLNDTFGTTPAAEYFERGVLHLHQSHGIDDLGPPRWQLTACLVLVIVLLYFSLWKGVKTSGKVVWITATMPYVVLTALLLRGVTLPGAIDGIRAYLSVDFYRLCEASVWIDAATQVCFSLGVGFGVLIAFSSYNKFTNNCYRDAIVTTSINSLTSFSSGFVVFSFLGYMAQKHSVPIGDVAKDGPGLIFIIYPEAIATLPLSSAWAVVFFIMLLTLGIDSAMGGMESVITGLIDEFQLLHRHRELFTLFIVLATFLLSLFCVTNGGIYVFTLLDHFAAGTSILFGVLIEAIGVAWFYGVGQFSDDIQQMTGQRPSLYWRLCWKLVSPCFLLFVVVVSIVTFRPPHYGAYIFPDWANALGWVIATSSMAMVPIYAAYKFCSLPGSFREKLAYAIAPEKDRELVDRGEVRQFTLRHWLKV
T2 sequence (Q01959 whole entry): as above

SMILES: O=C(O)C(/C=C/c1ccccc1)N1CCN(CCOC(c2ccccc2)c2ccccc2)CC1 (stereo not shown) [ZHN-94]
- Ki [1, 7]: 2780 ± 1250 nM
- Hill Coefficient [1, 8]: −0.8 ± 0.2
- [125I]RTI-55 Binding in HEK hDAT Membranes Hill slope ([1]; Table II): −0.78 ± 0.17
- Ki [1, 9]: 2780 ± 1250 nM
- IC50 [2, 10]: 385 ± 111 nM
- Ki [3]: > 10 µM
- IC50 [4]: > 10 µM
- Ki [5, 11]: > 10 µM
- IC50 [6, 12]: 2200 ± 470 nM

SMILES: O=C(O)C(/C=C/c1ccccc1)N1CCC(O)(c2ccc(Cl)cc2)CC1 (stereo not shown) [RNH-Z-48]
- Ki [1, 13]: > 10000 nM
- IC50 [2, 14]: > 10000 nM
- Ki [3]: > 10 µM
- IC50 [4]: > 10 µM
- Ki [5, 11]: > 10 µM
- IC50 [6, 15]: > 10000 nM

SMILES: CC(Cc1cccc(C(F)(F)F)c1)NC(/C=C/c1ccccc1)C(=O)O (stereo not shown) [RNH-Z-58]
- Ki [1, 13]: > 10000 nM
- IC50 [2, 14]: > 10000 nM
- Ki [3]: > 10 µM
- IC50 [4]: > 10 µM
- Ki [5, 11]: > 10 µM
- IC50 [6, 15]: > 10000 nM

SMILES: O=C(O)C(/C=C/c1ccccc1)C1CCN(CCOC(c2ccc(F)cc2)c2ccc(F)cc2)CC1 (stereo not shown) [ZHN-93]
- Ki [1, 7]: 727 ± 291 nM
- Hill Coefficient [1, 8]: −1.0 ± 0.3
- [125I]RTI-55 Binding in HEK hDAT Membranes Hill slope ([1]; Table II): −1.02 ± 0.30
- Ki [1, 9]: 727 ± 291 nM
- IC50 [2, 10]: 182 ± 59 nM
- Ki [3]: > 10 µM
- IC50 [4]: > 10 µM
- [125I]RTI-55 Binding in HEK-hNET Membranes Hill slope [5]: −1.78 ± 0.65
- Ki [5, 16]: 4.54 ± 1.54 µM
- IC50 [6, 12]: 117 ± 20 nM

SMILES: O=C(NCc1cccc2ccccc12)C(/C=C/c1ccccc1)N1CCC(c2ccccc2)CC1 (stereo not shown) [RNH-Z-31]
- Ki [1, 7]: 7730 ± 3070 nM
- Hill Coefficient [1, 8]: −7.0 ± 4.5
- [125I]RTI-55 Binding in HEK hDAT Membranes Hill slope ([1]; Table II): −7.00 ± 4.54
- Ki [1, 9]: 7730 ± 3070 nM
- IC50 [2, 14]: > 10000 nM
- Ki [3]: > 10 µM
- IC50 [4]: > 10 µM
- Ki [5, 11]: > 10 µM
- IC50 [6, 15]: > 10000 nM

SMILES: O=C(O)C(/C=C/c1ccccc1)NC1CCc2ccccc21 (stereo not shown) [RNH-Z-39]
- Ki [1, 13]: > 10000 nM
- IC50 [2, 14]: > 10000 nM
- Ki [3]: > 10 µM
- IC50 [4]: > 10 µM
- [125I]RTI-55 Binding in HEK-hNET Membranes Hill slope [5]: −0.96 ± 0.17
- Ki [5, 16]: 2.92 ± 1.23 µM
- IC50 [6, 15]: > 10000 nM

SMILES: O=C(O)C(/C=C/c1ccccc1)C1CCN(CCOC(c2ccccc2)c2ccccc2)CC1 (stereo not shown) [ZHN-92]
- Ki [1, 7]: 3710 ± 1250 nM
- Hill Coefficient [1, 8]: −1.2 ± 0.2
- [125I]RTI-55 Binding in HEK hDAT Membranes Hill slope ([1]; Table II): −1.15 0.15
- IC50 [2, 10]: 2010 ± 428 nM
- Ki [3]: > 10 µM
- IC50 [4]: > 10 µM
- Ki [5, 11]: > 10 µM
- IC50 [6, 12]: 113 ± 15 nM

SMILES: c1ccc(CCCN2CCN(CCOC(c3ccccc3)c3ccccc3)CC2)cc1 [GBR-12935, reference compound]
- [125I]RTI-55 Binding in HEK-hNET Membranes Hill slope [5]: −0.90 ± 0.07
- Ki [5, 16]: 0.628 ± 0.059 µM
- IC50 [6, 12]: 165 ± 17 nM

SMILES: CN(CCCN1c2ccccc2C=Cc2ccccc21)C(/C=C/c1ccccc1)C(=O)O (stereo not shown) [RNH-Z-52]
- Ki [1, 13]: > 10000 nM
- IC50 [2, 14]: > 10000 nM
- Ki [3]: > 10 µM
- IC50 [4]: > 10 µM
- Ki [5, 11]: > 10 µM
- IC50 [6, 15]: > 10000 nM

SMILES: O=C(O)C(/C=C/c1ccccc1)N1CCC(c2ccccc2)CC1 (stereo not shown) [RNH-Z-24]
- Ki [1, 13]: > 10000 nM
- IC50 [2, 14]: > 10000 nM
- Ki [3]: > 10 µM
- IC50 [4]: > 10 µM
- Ki [5, 11]: > 10 µM
- IC50 [6, 12]: 204 ± 85 nM

SMILES: CN(C)C(=O)C(/C=C/c1ccccc1)N1CCC(c2ccccc2)CC1 (stereo not shown) [RNH-Z-28]
- Ki [1, 7]: 3920 ± 1240 nM
- Hill Coefficient [1, 8]: −2.1 ± 0.6
- [125I]RTI-55 Binding in HEK hDAT Membranes Hill slope ([1]; Table II): −2.09 ± 0.60
- Ki [1, 9]: 3920 ± 1240 nM
- IC50 [2, 10]: 4040 ± 1630 nM
- Ki [3]: > 10 µM
- IC50 [4]: > 10 µM
- Ki [5, 11]: > 10 µM
- IC50 [6, 12]: 211 ± 65 nM

SMILES: CN(CCC=C1c2ccccc2CCc2ccccc21)C(/C=C/c1ccccc1)C(=O)O (stereo not shown) [RNH-Z-44]
- Ki [1, 7]: 3300 ± 855 nM
- Hill Coefficient [1, 8]: −2.2 ± 0.9
- [125I]RTI-55 Binding in HEK hDAT Membranes Hill slope ([1]; Table II): −2.16 ± −0.89
- Ki [1, 9]: 3300 ± 855 nM
- IC50 [2, 10]: 1820 ± 819 nM
- Ki [3]: > 10 µM
- IC50 [4]: > 10 µM
- Ki [5, 11]: > 10 µM
- IC50 [6, 15]: > 10000 nM

— patent publication US7141573B2, “Polypharmacophoric agents” (Molecular Insight Pharmaceuticals, Inc., priority 2000, dated 2006)
